The results in this text go back to US8247377B2, “Non-steroidal glucocorticoid inhibitors and their use in treating inflammation, allergy and auto-immune conditions” (Glaxo Group Limited, priority 2006, dated 2012).

Where only a bound is given, the exact number is not on record here.

One test deals with T1, progesterone receptor (Homo sapiens, UniProt P06401).
T1 construct: expressed in transfected cells; host or cells: CV-1 cells transduced with PRb-BacMam and MMTV-BacMam
T1 sequence (P06401 1-933): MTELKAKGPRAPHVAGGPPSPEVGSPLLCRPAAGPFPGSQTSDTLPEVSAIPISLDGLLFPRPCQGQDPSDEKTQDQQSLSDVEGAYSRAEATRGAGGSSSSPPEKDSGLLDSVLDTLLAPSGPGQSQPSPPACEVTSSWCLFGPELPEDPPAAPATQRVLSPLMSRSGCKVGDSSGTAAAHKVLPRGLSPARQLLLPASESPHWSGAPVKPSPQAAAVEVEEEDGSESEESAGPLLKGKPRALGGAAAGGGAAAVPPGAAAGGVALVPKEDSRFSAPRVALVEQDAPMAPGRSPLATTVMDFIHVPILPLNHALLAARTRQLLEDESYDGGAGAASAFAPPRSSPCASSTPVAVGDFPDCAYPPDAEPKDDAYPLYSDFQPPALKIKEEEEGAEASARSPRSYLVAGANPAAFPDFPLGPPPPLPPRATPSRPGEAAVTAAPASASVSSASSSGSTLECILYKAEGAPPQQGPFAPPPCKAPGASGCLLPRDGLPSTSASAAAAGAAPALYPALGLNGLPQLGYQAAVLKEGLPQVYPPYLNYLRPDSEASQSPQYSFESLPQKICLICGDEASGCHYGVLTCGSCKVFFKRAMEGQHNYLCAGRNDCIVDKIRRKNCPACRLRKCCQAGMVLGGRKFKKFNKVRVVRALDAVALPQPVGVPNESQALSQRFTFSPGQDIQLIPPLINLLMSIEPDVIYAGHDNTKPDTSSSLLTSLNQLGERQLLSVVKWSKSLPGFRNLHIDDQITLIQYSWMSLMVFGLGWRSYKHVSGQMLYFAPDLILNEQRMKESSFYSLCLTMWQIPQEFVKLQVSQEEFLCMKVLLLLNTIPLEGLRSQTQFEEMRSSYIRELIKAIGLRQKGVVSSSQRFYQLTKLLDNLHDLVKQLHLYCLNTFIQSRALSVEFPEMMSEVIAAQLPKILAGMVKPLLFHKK
The test can be described thus: Assay for progesterone receptor activity (CV-1 cells, PRb-BacMam/MMTV-BacMam). The test is classed as cell-based. Particulars: CV-1 cells transduced with PRb-BacMam and MMTV-BacMam; read-out: pEC50 progesterone receptor activity (converted). As for the experimental part:
A T225 flask of CV-1 cells at a density of 80% confluency was washed with PBS, detached from the flask using 0.25% trypsin and counted using a Sysmex KX-21N. Cells were diluted in DMEM containing 10% Hyclone, 2 mM L-Glutamate and 1% Pen/Strep at 140 cells/μl and transduced with 10% PRb-BacMam and 10% MMTV-BacMam. […] of suspension cells were dispensed to each well of white Nunc 384-well plates, containing compounds at the required concentration. After 24 h 10 μl of Steadylite were added to each well of the plates. Plates were incubated in the dark for 10 min before reading them on a Viewlux reader. Dose response curves were constructed from which pEC50 values were estimated.

Another test concerns the target T2, glucocorticoid receptor (Homo sapiens, UniProt P04150).
T2 construct: a partially purified full length glucocorticoid receptor
T2 sequence (P04150 1-777): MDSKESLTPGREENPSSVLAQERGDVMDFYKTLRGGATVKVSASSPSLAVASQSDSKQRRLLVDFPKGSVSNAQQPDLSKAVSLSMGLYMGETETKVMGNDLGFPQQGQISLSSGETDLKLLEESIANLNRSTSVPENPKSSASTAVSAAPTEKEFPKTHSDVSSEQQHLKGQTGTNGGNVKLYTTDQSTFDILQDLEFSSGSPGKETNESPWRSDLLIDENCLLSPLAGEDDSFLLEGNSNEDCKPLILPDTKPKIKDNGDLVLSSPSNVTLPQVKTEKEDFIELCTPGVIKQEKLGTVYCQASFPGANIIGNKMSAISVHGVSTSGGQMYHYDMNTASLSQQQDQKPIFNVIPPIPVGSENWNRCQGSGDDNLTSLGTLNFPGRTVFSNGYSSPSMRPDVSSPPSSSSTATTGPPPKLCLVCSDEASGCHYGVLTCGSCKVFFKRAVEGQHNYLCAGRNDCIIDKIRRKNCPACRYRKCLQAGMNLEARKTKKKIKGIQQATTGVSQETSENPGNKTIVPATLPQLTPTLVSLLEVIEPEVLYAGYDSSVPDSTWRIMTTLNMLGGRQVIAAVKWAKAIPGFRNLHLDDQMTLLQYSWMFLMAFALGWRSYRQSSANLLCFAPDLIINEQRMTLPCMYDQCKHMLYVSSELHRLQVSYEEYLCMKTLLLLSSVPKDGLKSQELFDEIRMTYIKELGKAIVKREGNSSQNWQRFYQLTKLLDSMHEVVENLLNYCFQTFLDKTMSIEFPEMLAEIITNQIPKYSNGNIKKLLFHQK
The test can be described thus: Glucocorticoid receptor binding assay (fluorescence polarisation). Conditions: competition with Alexa 555 fluorescently-labelled dexamethasone derivative, full length glucocorticoid receptor; read-out: glucocorticoid binding pIC50 (converted). Here is the method: Compounds were solvated and diluted in DMSO, and transferred directly into assay plates. Fluorescent dexamethasone and a partially purified full length glucocorticoid receptor were added to the plates, together with buffer components to stabilise the GR protein and incubated at room temperature for 2 hrs in the dark. Binding of each compound was assessed by analysing the displacement of fluorescent ligand by measuring the decrease in fluorescence polarisation signal from the mixture. Dose response curves were constructed from which pIC50 values were estimated.

A further test relates to NFκB. In words: NFκB agonist assay in A549 SPAP cells. The test is classed as cell-based. Conditions: Homo sapiens; A549 SPAP cells, TNFα 3.2 ng/ml; read-out: pIC50 for the NFkB assay (converted). The source says: Human lung carcinoma A549 cell line (ECACC No. 86012804) has been stably transfected in house with a plasmid containing an ELAM promoter sequence that has a NFκB response element within it. Stimulation of the cell line with TNFα results in intracellular signal transduction and ultimately translocation of NFκB into the nucleus. This activates the inserted DNA sequence resulting in transcription of the integrated SPAP gene, which is quantified using a colorimetric assay. […] The stably transfected cell line was grown as a monolayer in DMEM supplemented with FCS-HI (10%), Non-essential amino acids (1%), L-Glutamine (2 mM), Pen/Strep (1%) and Geneticin (50 mg/ml).
A 70% confluent T225 flask of A549 SPAP cells was harvested by centrifugation for 5 min at 200 g, resuspended in assay buffer (DMEM supplemented with 10% FCS 2×HI, 2 mM L-Glutamine, 1% Pen/Strep and Non essential amino acids) and diluted to 0.16×10^6/ml. 60 μl of cell solution was dispensed to each well of clear Nunc 384-well plates, containing compound at the required concentration. Plates were incubated for 1 h at 37° C., 95% humidity, 5% CO2 before 10 μl of TNFα was added at final concentration of 3.2 ng/ml and then returned to the cell incubator for 15 h. Plates were equilibrated to room temperature for 1 h prior to the addition of 25 μl of pNPP buffer (1M Diethanolamine pH 9.8, 0.5 mM MgCl2, 0.28M NaCl, 2 mg/ml pNPP) to each well of assay plates. The plates were covered to protect the reagents from light, and then incubated at room temperature for approximately 1 hour before reading them on an Ascent using a 405 nm single filter. Dose response curves were constructed from which pIC50 values were estimated.

Consider `Nc1c(C(=O)NCC(O)(CNC(=O)c2c(F)cccc2F)C(F)(F)F)cnn1-c1ccc(F)cc1` (racemic) [Example 6 (racemic), 5-Amino-N-[2-({[(2,6-difluorophenyl)carbonyl]amino}methyl)-3,3,3-trifluoro-2-hydroxypropyl]-1-(4-fluorophenyl)-1H-pyrazole-4-carboxamide], for which, on progesterone receptor, the EC50 was above 1000 nM.

In the case of `Nc1c(C(=O)NCC(O)(CNC(=O)c2c(OC(F)F)cccc2OC(F)F)C(F)(F)F)cnn1-c1ccc(F)cc1` (racemic) [Example 20 (racemic), 5-amino-N-(2-{[({2,6-bis[(difluoromethyl)oxy]phenyl}carbonyl)amino]methyl}-3,3,3-trifluoro-2-hydroxypropyl)-1-(4-fluorophenyl)-1H-pyrazole-4-carboxamide], the IC50 on glucocorticoid receptor was at most 316 nM. Moreover, on progesterone receptor, the EC50 is above 1000 nM.

`Nc1c(C(=O)NCC(O)(CN(CCF)C(=O)c2c(OC(F)F)cccc2OC(F)F)C(F)(F)F)cnn1-c1ccc(F)cc1` (racemic) [Example 32 (racemic), 5-amino-N-(2-{[({2,6-bis[(difluoromethyl)oxy]phenyl}carbonyl)(2-fluoroethyl)amino]methyl}-3,3,3-trifluoro-2-hydroxypropyl)-1-(4-fluorophenyl)-1H-pyrazole-4-carboxamide]: the IC50 at glucocorticoid receptor is at most 316 nM; with NFκB it was below 1000 nM. In addition, on progesterone receptor, the EC50 was above 1000 nM.

Take `Nc1c(C(=O)NCC(O)(CNC(=O)c2c(F)cccc2OC(F)F)C(F)(F)F)cnn1-c1ccc(F)cc1` (racemic) [Example 48 (racemic), 5-Amino-N-(2-{[({2-[(difluoromethyl)oxy]-6-fluorophenyl}carbonyl)amino]methyl}-3,3,3-trifluoro-2-hydroxypropyl)-1-(4-fluorophenyl)-1H-pyrazole-4-carboxamide]: the IC50 on glucocorticoid receptor was at most 316 nM; in the test with NFκB, below 1000 nM. In addition, on progesterone receptor, the EC50 is above 1000 nM.

With `CCN(CC(O)(CNC(=O)c1cnn(-c2ccc(F)cc2)c1N)C(F)(F)F)C(=O)c1c(Cl)cccc1Cl` (single isomer, unassigned) [Example 2 Enantiomer 1, 5-Amino-N-(2-{[[(2,6-dichlorophenyl)carbonyl](ethyl)amino]methyl}-3,3,3-trifluoro-2-hydroxypropyl)-1-(4-fluorophenyl)-1H-pyrazole-4-carboxamide], the figures for the IC50 at glucocorticoid receptor and in the test with NFκB were at most 316 nM and below 1000 nM, respectively. In addition, the EC50 on progesterone receptor is above 1000 nM.

With `CCN(CC(O)(CNC(=O)c1cnn(-c2ccc(F)cc2)c1N)C(F)(F)F)C(=O)c1c(F)cccc1Cl` (single isomer, unassigned) [Example 4 Enantiomer 1, 5-Amino-N-(2-{[[(2-chloro-6-fluorophenyl)carbonyl](ethyl)amino]methyl}-3,3,3-trifluoro-2-hydroxypropyl)-1-(4-fluorophenyl)-1H-pyrazole-4-carboxamide], the IC50 at glucocorticoid receptor is at most 316 nM; in the test on NFκB, below 1000 nM. Further, the EC50 at progesterone receptor is above 1000 nM.

Consider `Nc1c(C(=O)NCC(O)(CNC(=O)c2c(F)cccc2Cl)C(F)(F)F)cnn1-c1ccc(F)cc1` (single isomer, unassigned) [Example 7 Enantiomer 1, 5-Amino-N-[2-({[(2-chloro-6-fluorophenyl)carbonyl]amino}methyl)-3,3,3-trifluoro-2-hydroxypropyl]-1-(4-fluorophenyl)-1H-pyrazole-4-carboxamide], for which the IC50 in the test with NFκB is below 1000 nM. Also, the EC50 at progesterone receptor is above 1000 nM.

As for `Nc1c(C(=O)NCC(O)(CNC(=O)c2c(C(F)(F)F)cccc2C(F)(F)F)C(F)(F)F)cnn1-c1ccc(F)cc1` (single isomer, unassigned) [Example 15 Enantiomer 2, 5-amino-N-{2-[({[2,6-bis(trifluoromethyl)phenyl]carbonyl}amino)methyl]-3,3,3-trifluoro-2-hydroxypropyl}-1-(4-fluorophenyl)-1H-pyrazole-4-carboxamide], in the test with NFκB, the IC50 is below 1000 nM.
